Results from PubChem BioAssay (NCI).
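These data come from cells grown in 96-well plates and exposed to compound for 48 hours at five concentrations. TGI marks complete inhibition of growth.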

Legend:
Test in all cases: DTP human tumour cell line panel, 48 h
[1] = test system: A549 NSCLC
[2] = test system: MALME-3M melanoma
[3] = test system: NCI-H226 lung
[4] = test system: NCI-H522 lung
[5] = test system: BT-549 breast
[6] = test system: 786-0 renal
[7] = test system: SR leukemia
[8] = test system: UO-31 renal
[9] = test system: M14 melanoma
[10] = test system: COLO 205 colon
[11] = test system: HS 578T breast
[12] = test system: SNB-19 CNS
[13] = test system: T-47D breast
[14] = test system: MCF7 breast
[15] = test system: DU-145 prostate
[16] = test system: NCI/ADR-RES ovarian
[17] = test system: ACHN renal
[18] = test system: EKVX NSCLC
[19] = test system: SN12C renal
[20] = test system: HOP-92 NSCLC
[21] = test system: SF-539 CNS
[22] = test system: HT29 colon
[23] = test system: SK-OV-3 ovarian
[24] = test system: HOP-62 NSCLC
[25] = test system: KM12 colon
[26] = test system: CAKI-1 renal
[27] = test system: HCC-2998 colon
[28] = test system: PC-3 prostate
[29] = test system: TK-10 renal
[30] = test system: NCI-H23 lung
[31] = test system: MDA-MB-435
[32] = test system: OVCAR-8 ovarian
[33] = test system: RXF 393 renal
[34] = test system: U251 CNS
[35] = test system: UACC-257 melanoma
[36] = test system: MDA-N
[37] = test system: SNB-75 CNS
[38] = test system: RPMI-8226 leukemia
[39] = test system: SF-268 CNS
[40] = test system: SK-MEL-5 melanoma
[41] = test system: NCI-H460 lung
[42] = test system: UACC-62 melanoma
[43] = test system: SW-620 colon
[44] = test system: OVCAR-3 ovarian
[45] = test system: IGROV1 ovarian
[46] = test system: SK-MEL-28 melanoma
[47] = test system: SF-295 CNS
[48] = test system: SK-MEL-2 melanoma
[49] = test system: OVCAR-5 ovarian
[50] = test system: OVCAR-4 ovarian
[51] = test system: HL-60(TB) leukemia
[52] = test system: CCRF-CEM leukemia
[53] = test system: HCT-116 colon
[54] = test system: MOLT-4 leukemia
[55] = test system: A498 renal
[56] = test system: MDA-MB-231 breast
[57] = test system: K-562 leukemia

Measured: TGI

O=C(NC(CCCCN1C(=O)c2ccccc2C1=O)P(=O)(Oc1ccccc1)Oc1ccccc1)OCc1ccccc1 (stereo not drawn)
> 100 µM: [1] | [2] | [3] | [4] | [5] | [6] | [7] | [8] | [9] | [10] | [11] | [12] | [13] | [14] | [15] | [16] | [17] | [18] | [19] | [20] | [21] | [22] | [23] | [24] | [25] | [26] | [27] | [28] | [29] | [30] | [31] | [32] | [33] | [34] | [35] | [36] | [37] | [38] | [39] | [40] | [41] | [42] | [43] | [44] | [45] | [46] | [47] | [48] | [49]

COC1(OC)C2C=CC1C([C@](C)(N)CO)C2 (stereo partly drawn)
> 100 µM: [1] | [2] | [3] | [4] | [5] | [6] | [7] | [8] | [9] | [10] | [11] | [12] | [13] | [14] | [15] | [17] | [18] | [19] | [20] | [21] | [22] | [23] | [24] | [50] | [25] | [26] | [51] | [27] | [28] | [29] | [30] | [31] | [52] | [32] | [33] | [34] | [35] | [36] | [53] | [37] | [54] | [39] | [40] | [55] | [41] | [56] | [42] | [43] | [44] | [45] | [46] | [47] | [57] | [49]
